# Reference: patent US20080267948A1, “Croos-B Structure Binding Compounds” (priority 2005, published 2008)
# Entries after “also recorded” stand apart in the source; their conditions may differ.
# Experiments:
# [1] = test system: misfolded proteins (Hb-AGE, Aβ); assay: Binding of misfolded proteins from solution to immobilized small compounds (overall); conditions: compounds coated on ELISA plates, Hb-AGE or Aβ in solution
# Experimental: (§1) To test the ability of the twelve selected compounds (see Table 7) to bind to misfolded proteins, the compounds were immobilized at 10/100/1000 μg/ml in the wells of 96-wells Greiner Microlon high binding plates, Nunc amino Immobilizer plates and Nunc Maxisorp plates. Compounds were coated in 100 mM NaHCO3 pH 9.6, 50 μl/well, 1 h at room temperature with agitation. As a control, wells were coated with buffer only. After blocking of the plates, wells were overlayed with solutions of 0.1/1/10 μg/ml Hb-AGE or 10/100 μg/ml Aβ, in binding buffer (PBS/0.1% Tween20). After washing, binding of Hb-AGE was assessed by overlaying wells with 1 μg/ml hybridoma antibody 4B5, which binds to glycations(^2), followed by RAMPO. Binding of Aβ was visualized using 500× diluted anti-Aβ antibodies (mouse antibody beta-amyloid Clone 6F/3D #M0872, lot 00003503, DAKOCytomation; β-amyloid (H-43) SC-9129, 200 μg/ml rabbit polyclonal IgG, Santa Cruz Biotechnology) and RAMPO/SWARPO in a 1:1 ratio. Finally, wells were overlayed with OPD/H2O2 solution, and H2SO4, before absorbance readings at 490 nm.
# tPA/plasminogen [2] = biological target: T1, tPA/plasminogen (Homo sapiens, UniProt P00750); assay: tPA/plasminogen activation by OVA heated in the presence of compounds (substrate PNAPEP1751); type: biochemical; conditions: 25 μg/ml OVA, 25 μg/ml compound, […] DMSO
# T1 construct: purchased Boehringer Ingelheim Actilyse
# Experimental: Heated OVA, either in PBS/1% DMSO (positive control), or in the same buffer in the presence of 1 mg/ml of the compounds, was used 40-fold diluted in the assay. Negative control was buffer without OVA. […] In addition, it was assessed whether the compounds interfere with absorbance readings at 405 nm, with converted chromogenic substrate. […] The yellow solution is divided over wells of an ELISA plate. […] Signals are compared and related to the control.
# ovalbumin = biological target: T2, ovalbumin (Gallus gallus, UniProt P01012); assay: Transmission electron microscopy of ovalbumin heated in the presence of small compounds; parameters: species or system chicken; conditions: 1 mg/ml ovalbumin heated with 1 mg/ml compound
# T2 construct: purchased Sigma A5503
# T2 sequence (P01012 1-386): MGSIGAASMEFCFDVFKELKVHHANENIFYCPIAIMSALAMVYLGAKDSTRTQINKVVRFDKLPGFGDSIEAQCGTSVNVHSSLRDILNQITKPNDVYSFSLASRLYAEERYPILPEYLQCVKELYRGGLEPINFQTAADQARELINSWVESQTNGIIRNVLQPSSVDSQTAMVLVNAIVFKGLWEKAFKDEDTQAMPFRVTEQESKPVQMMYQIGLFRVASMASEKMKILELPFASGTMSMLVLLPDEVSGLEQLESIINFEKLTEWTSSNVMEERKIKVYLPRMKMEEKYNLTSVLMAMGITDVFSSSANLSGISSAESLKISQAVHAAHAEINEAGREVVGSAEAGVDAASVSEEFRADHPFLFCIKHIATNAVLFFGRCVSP
# Experimental: For TEM analyses grids were prepared according to standard procedures. Ovalbumin samples at 1 mg/ml were applied to 100-mesh copper grids with carbon coated Formvar (Merck, Germany), and subsequently washed with PBS and H2O. Grids were applied to droplets of 2% (m/v) methylcellulose with 0.4% (m/v) uranylacetate pH 4. After a 2-minutes incubation grids were dried on a filter. Images were recorded at 80 kV, at suitable magnifications on a JEM-1200EX electron microscope (JEOL, Japan).
# Aβ = biological target: T3, Aβ (Homo sapiens, UniProt P05067, E693Q); assay: Binding of Aβ from solution to immobilized small compounds; conditions: coat 100 μg/ml
# T3 construct: Lyophilized human amyloid-β(1-40) with E22Q mutation ‘Dutch type’; purchased Peptide facility, Dutch Cancer Institute, Amsterdam; host or cells: synthetic peptide
# Experimental: as §1, with “the compounds were immobilized at 10/100/1000 μg/ml in the wells of 96-wells” left out
# heat-denatured ovalbumin = biological target: T4, heat-denatured ovalbumin (Gallus gallus, UniProt P01012); assay: Thioflavin T fluorescence of ovalbumin and small compounds; parameters: species or system chicken; conditions: 1 mg/ml compound, 1 mg/ml OVA
# T4 construct: purchased Sigma A5503
# T4 sequence (P01012 1-386): T2 sequence (P01012 1-386)
# Experimental: To establish the enhancement of Thioflavin T fluorescence by ovalbumin preparations, 90 μl of 25 μM ThT-solution in 50 mM Glycine buffer (pH 9.0) was added to 10 μl sample in duplicate wells of black 96-wells plates. Heat-denatured ovalbumin at 1 mg/ml in PBS with no addition, DMSO at a final concentration of 1% v/v, or 1 mg/ml of the compounds listed in Table 7, was used. Compound stocks are 100 mg/ml in DMSO. In addition, ovalbumin at 1 mg/ml with the same additions was first heat denatured and subsequently used in the fluorescence assay. Heat denaturation was according to the protocol given above. Fluorescence of duplicates was measured on a Thermo Fluoroskan Ascent 2.5, at 435 nm excitation and 485 nm emission wavelengths.
# tPA/plasminogen [3] = biological target: T1, tPA/plasminogen; assay: tPA/plasminogen activation by pre-formed misfolded OVA in the presence of compounds; type: biochemical; conditions: 80-fold or 160-fold diluted compound and misfolded OVA stocks of 1 mg/ml
# Experimental: […] Negative control was buffer without OVA. […] In addition, it was assessed whether the compounds interfere with absorbance readings at 405 nm, with converted chromogenic substrate. […] The yellow solution is divided over wells of an ELISA plate. […] Signals are compared and related to the control.
# Hb-AGE [4] = biological target: T5, Hb-AGE (Homo sapiens, UniProt P68871+P69905); assay: Binding of Hb-AGE from solution to immobilized small compounds; conditions: coat 100 μg/ml
# T5 construct: purchased Sigma-Aldrich H7379
# Experimental: as §1, with “the compounds were immobilized at 10/100/1000 μg/ml in the wells of 96-wells” left out
# Hb-AGE [5] = biological target: T5, Hb-AGE; assay: ELISA binding of tPA to immobilized Hb-AGE after pre-incubation with compounds; conditions: Hb-AGE first overlayed with compound (concentration series), then tPA
# Experimental: Compounds were now diluted 10× in PBS/0.1% Tween20 (500 μg/ml compound). […] With the selection, similar binding assays are performed with misfolded OVA and Aβ. Finally, concentration series of the selected compounds are used in the binding studies.
# tPA = tPA (Homo sapiens, UniProt P00750); assay: tPA serine protease activity with OVA heated in the presence of compounds (substrate S-2765); type: biochemical; parameters: purchased Boehringer Ingelheim Actilyse; conditions: OVA heated with 1 mg/ml compound, 80-, 160- or 320-fold diluted, 100 nM tPA
# Experimental: For this purpose, the influence of the compounds on heat-denaturation of OVA was analyzed (see above: Thioflavin T fluorescence measurements). Heated OVA at 1 mg/ml in PBS in the presence or absence of 1 mg/ml of the twelve compounds listed in Table 7 in PBS/DMSO (final DMSO concentration 1%) was used 80-fold or 160-fold or 320-fold diluted (final heated OVA concentration and compound concentration was 12.5 or 6.3 or 3.1 μg/ml; final DMSO concentration was 0.013% and 0.006% and 0.003%).
# [6] = biological target: T6, glycated haemoglobin (Hb-AGE) (Homo sapiens, UniProt P68871+P69905); assay: ELISA binding of IgIV to immobilized Hb-AGE and inhibition studies; conditions: 15 μg/ml IgIV, concentration series of competitor
# T6 construct: purchased Sigma-Aldrich H7379
# Experimental: Binding of IgIV was determined using an enzyme linked immunosorbent assay (ELISA) set-up. For this purpose 50 μl/well of potential ligands at indicated concentrations or coat buffer only for control and background measurement purposes, were coated overnight at 4° C., with motion, in 50 mM NaHCO3 pH 9.6. Glycated albumin and Hb (BSA-AGE and Hb-AGE), control BSA and control Hb were coated at 5 μg/ml. The BSA and Hb controls were prepared freshly by dissolving lyophilized proteins at 1 mg/ml in PBS upon resuspending by pipetting, followed by a 30′ period at the roller bank, at room temperature. The protein solutions were centrifuged for 10′ at 16,000*g and diluted in coat buffer. Coat controls were performed with anti-glycated protein antibody, anti-albumin antibody, anti-Hb antibody. The alkaline phosphatase-conjugated anti-human Ig antibodies were controlled by coating the IgIV's and overlaying them the secondary antibodies. After coating the plates were washed twice with 50 mM Tris-HCl pH 7.3, 150 mM NaCl, 0.1% v/v Tween20, and blocked with 175 μl/well Blocking reagent (Roche Diagnostics, Almere, The Netherlands; catalogue number 11112589001), for 1 h at room temperature, with motion. Plates were washed twice and incubated in triplicate with indicated antibodies dilution series, plasma dilution series or controls, including binding buffer only, in the absence or presence of putative inhibitors, in binding buffer; PBS/0.1% v/v Tween20, at 50 μl/well, for 1 h at room temperature, with constant motion. After four wash cycles, secondary antibodies were added to the wells, 50 μl/well, for 45′ at room temperature, with motion. RAMPO and SWARPO were used at 2000 times dilution, goat anti-human IgG antibodies were diluted 3000 times, goat anti-human IgM antibodies were diluted 1000 times. After 5 washes with wash buffer followed by two washes with PBS, binding of antibodies was assessed. […] After 5′ absorbance was read at 405 nm. […] After 5′ absorbance was read at 490 nm. […] Triplicates were averaged and standard deviations calculated. […]
# T1 sequence (P00750 36-562): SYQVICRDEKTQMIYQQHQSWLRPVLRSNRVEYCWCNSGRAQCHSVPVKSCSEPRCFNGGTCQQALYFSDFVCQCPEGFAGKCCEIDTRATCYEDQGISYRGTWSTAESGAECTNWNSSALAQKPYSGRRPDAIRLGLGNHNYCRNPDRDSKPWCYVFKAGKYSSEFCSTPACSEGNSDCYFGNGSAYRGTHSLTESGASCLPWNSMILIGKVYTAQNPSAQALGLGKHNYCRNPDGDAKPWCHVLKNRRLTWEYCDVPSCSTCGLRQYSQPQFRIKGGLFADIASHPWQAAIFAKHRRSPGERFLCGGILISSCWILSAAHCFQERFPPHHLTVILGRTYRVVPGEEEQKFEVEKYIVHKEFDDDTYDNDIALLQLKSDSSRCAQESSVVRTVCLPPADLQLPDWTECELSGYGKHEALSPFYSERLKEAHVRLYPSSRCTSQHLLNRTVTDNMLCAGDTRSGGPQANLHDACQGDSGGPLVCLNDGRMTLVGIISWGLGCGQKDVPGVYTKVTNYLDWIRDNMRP
# T5 sequence (P69905 2-142 limits assumed): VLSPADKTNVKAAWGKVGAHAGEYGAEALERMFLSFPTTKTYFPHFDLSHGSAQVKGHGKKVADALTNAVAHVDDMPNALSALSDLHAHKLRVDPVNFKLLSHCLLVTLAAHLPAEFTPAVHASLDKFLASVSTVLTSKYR
# T5 sequence (P68871 2-147 limits assumed): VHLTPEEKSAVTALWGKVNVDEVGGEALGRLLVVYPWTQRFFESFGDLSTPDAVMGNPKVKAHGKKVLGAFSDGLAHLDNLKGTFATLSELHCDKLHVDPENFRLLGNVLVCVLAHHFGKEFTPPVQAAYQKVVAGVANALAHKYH
# tPA, sequence (P00750 36-562): as the sequence (P00750 36-562) above
# T6 sequence (P69905 2-142 limits assumed): as the sequence (P69905 2-142 limits assumed) above
# T6 sequence (P68871 2-147 limits assumed): as the sequence (P68871 2-147 limits assumed) above
compound,measurement,setting,value
Cc1c(C(=O)O)c(O)cc2c1C(=O)c1c(O)c([C@H]3O[C@H](CO)[C@@H](O)[C@H](O)[C@H]3O)c(O)c(O)c1C2=O [compound 19],capture of misfolded protein from solution by immobilized compound,[1],Capture of misfolded protein from solution
same,influence on tPA/plasminogen activation by OVA pre-heated in the presence of compound,tPA/plasminogen [2],Inhibition of tPA/plasminogen activation by OVA pre-heated
same,appearance of ovalbumin heated in the presence of compound on TEM image,ovalbumin,"Background as in Control, but less aggregated. Also"
same,Signal (a.u.),"Aβ; Nunc Maxisorp, Aβ 100 μg/ml",0.08 a.u.
same,Signal (a.u.),"Aβ; Nunc amino Immobilizer, Aβ 10 μg/ml",0.03 a.u.
same,Signal (a.u.),"Aβ; Nunc amino Immobilizer, Aβ 100 μg/ml",0.04 a.u.
same,influence on Thioflavin T fluorescence with misfolded OVA,heat-denatured ovalbumin,Inhibition on Thioflavin T fluorescence with misfolded OVA
same,influence on tPA/plasminogen activation by pre-formed misfolded OVA,tPA/plasminogen [3],Delayed tPA/plasminogen activation by misfolded OVA
same,Signal (a.u.),"Hb-AGE [4]; Nunc Maxisorp, Hb-AGE 10 μg/ml",0.16 a.u.
same,Signal (a.u.),"Hb-AGE [4]; Nunc amino Immobilizer, Hb-AGE 1 μg/ml",0.42 a.u.
same,influence on tPA binding to immobilized Hb-AGE,Hb-AGE [5],Stimulated tPA binding to immobilized misfolded protein (Hb-
Bucharaine [compound 8],appearance of ovalbumin heated in the presence of compound on TEM image,ovalbumin,no large OVA aggregates are seen
same,influence on tPA protease activity of OVA heated in the presence of compound,tPA,induces further stimulation of tPA by OVA; also recorded: induce increased tPA activity when combined with ovalbumin before heat-denaturation
same,influence on tPA/plasminogen activation by pre-formed misfolded OVA,tPA/plasminogen [3],potent inhibitors of misfolded OVA-triggered plasmin generation; also recorded: fully abolish plasmin activity
Thioflavin S,influence on binding of IgIV to immobilized Hb-AGE,[6],enhance the binding of IgIV
